Source: PubChem BioAssay (NCI)
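Test compounds were applied to cells in 96-well plates for 48 hours at 5 doses. The concentration for 50% growth inhibition is given as GI50. TGI is the concentration that stops growth completely.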

Legend:
Assay in all cases: NCI anticancer screen, dose series, 48 h
UACC-62 melanoma = system: UACC-62 melanoma
CCRF-CEM leukemia = system: CCRF-CEM leukemia
OVCAR-4 ovarian = system: OVCAR-4 ovarian
UO-31 renal = system: UO-31 renal
NCI-H23 lung = system: NCI-H23 lung
RXF 393 renal = system: RXF 393 renal
NCI-H522 lung = system: NCI-H522 lung
SF-539 CNS = system: SF-539 CNS
MOLT-4 leukemia = system: MOLT-4 leukemia
HOP-92 NSCLC = system: HOP-92 NSCLC
MALME-3M melanoma = system: MALME-3M melanoma
SNB-19 CNS = system: SNB-19 CNS
OVCAR-3 ovarian = system: OVCAR-3 ovarian
RPMI-8226 leukemia = system: RPMI-8226 leukemia
COLO 205 colon = system: COLO 205 colon
SR leukemia = system: SR leukemia
HT29 colon = system: HT29 colon
DLD-1 colon = system: DLD-1 colon
DMS 114 small cell lung = system: DMS 114 small cell lung
DMS 273 small cell lung = system: DMS 273 small cell lung
SF-295 CNS = system: SF-295 CNS
NCI-H460 lung = system: NCI-H460 lung
SK-MEL-5 melanoma = system: SK-MEL-5 melanoma
SK-MEL-2 melanoma = system: SK-MEL-2 melanoma
SK-MEL-28 melanoma = system: SK-MEL-28 melanoma
U251 CNS = system: U251 CNS
786-0 renal = system: 786-0 renal
HOP-18 NSCLC = system: HOP-18 NSCLC
HCT-15 colon = system: HCT-15 colon
M14 melanoma = system: M14 melanoma
A549 NSCLC = system: A549 NSCLC
TK-10 renal = system: TK-10 renal
SNB-75 CNS = system: SNB-75 CNS
ACHN renal = system: ACHN renal
SN12C renal = system: SN12C renal
M19-MEL melanoma = system: M19-MEL melanoma
OVCAR-8 ovarian = system: OVCAR-8 ovarian
CAKI-1 renal = system: CAKI-1 renal
HCC-2998 colon = system: HCC-2998 colon
EKVX NSCLC = system: EKVX NSCLC
XF 498 CNS = system: XF 498 CNS
IGROV1 ovarian = system: IGROV1 ovarian
KM20L2 colon = system: KM20L2 colon
NCI-H226 lung = system: NCI-H226 lung
SF-268 CNS = system: SF-268 CNS
K-562 leukemia = system: K-562 leukemia
SK-OV-3 ovarian = system: SK-OV-3 ovarian
HL-60(TB) leukemia = system: HL-60(TB) leukemia
LOX IMVI melanoma = system: LOX IMVI melanoma
SW-620 colon = system: SW-620 colon
SNB-78 CNS = system: SNB-78 CNS
HCT-116 colon = system: HCT-116 colon
KM12 colon = system: KM12 colon
HOP-62 NSCLC = system: HOP-62 NSCLC
LXFL 529 NSCLC = system: LXFL 529 NSCLC
OVCAR-5 ovarian = system: OVCAR-5 ovarian
UACC-257 melanoma = system: UACC-257 melanoma
RXF-631 renal = system: RXF-631 renal
A498 renal = system: A498 renal

Work on `COc1cc(-c2cc(=O)c3cc4c(cc3[nH]2)OCO4)cc(OC)c1OC` yielded a TGI (UACC-62 melanoma) greater than 100 µM, a TGI (CCRF-CEM leukemia) greater than 100 µM and a TGI (OVCAR-4 ovarian) greater than 100 µM. For the same compound, the TGI (UO-31 renal) was greater than 100 µM, the TGI (NCI-H23 lung) was greater than 100 µM and the GI50 (RXF 393 renal) was 22.1 µM. The TGI (RXF 393 renal) was 60.5 µM, the TGI (NCI-H522 lung) was greater than 100 µM and the TGI (SF-539 CNS) was greater than 100 µM. The TGI (MOLT-4 leukemia) was greater than 100 µM, the TGI (HOP-92 NSCLC) was 69 µM and the TGI (MALME-3M melanoma) was greater than 100 µM. It also gave a TGI (SNB-19 CNS) greater than 100 µM, a GI50 (OVCAR-3 ovarian) greater than 100 µM and a TGI (OVCAR-3 ovarian) greater than 100 µM. It also gave a TGI (RPMI-8226 leukemia) greater than 100 µM, a TGI (COLO 205 colon) greater than 100 µM and a TGI (SR leukemia) greater than 100 µM. It also gave a TGI (HT29 colon) greater than 100 µM, a TGI (DLD-1 colon) greater than 100 µM and a GI50 (DMS 114 small cell lung) of 83.8 µM. It also gave a TGI (DMS 114 small cell lung) greater than 100 µM, a TGI (DMS 273 small cell lung) greater than 100 µM and a GI50 (SF-295 CNS) of 32 µM. For the same compound, the TGI (SF-295 CNS) was 97.9 µM, the TGI (NCI-H460 lung) was greater than 100 µM and the TGI (SK-MEL-5 melanoma) was greater than 100 µM. The TGI (SK-MEL-2 melanoma) was greater than 100 µM, the TGI (SK-MEL-28 melanoma) was greater than 100 µM and the TGI (U251 CNS) was greater than 100 µM. The TGI (786-0 renal) was greater than 100 µM, the TGI (HOP-18 NSCLC) was greater than 100 µM and the TGI (HCT-15 colon) was greater than 100 µM. The TGI (M14 melanoma) was greater than 100 µM, the TGI (A549 NSCLC) was greater than 100 µM and the TGI (TK-10 renal) was greater than 100 µM. For the same compound, the TGI (SNB-75 CNS) was greater than 100 µM, the TGI (ACHN renal) was greater than 100 µM and the TGI (SN12C renal) was greater than 100 µM. For the same compound, the TGI (M19-MEL melanoma) was greater than 100 µM, the TGI (OVCAR-8 ovarian) was greater than 100 µM and the TGI (CAKI-1 renal) was greater than 100 µM. For the same compound, the TGI (HCC-2998 colon) was greater than 100 µM, the TGI (EKVX NSCLC) was greater than 100 µM and the TGI (XF 498 CNS) was greater than 100 µM. The TGI (IGROV1 ovarian) was greater than 100 µM, the GI50 (KM20L2 colon) was greater than 100 µM and the TGI (KM20L2 colon) was greater than 100 µM. It also gave a GI50 (NCI-H226 lung) greater than 100 µM, a TGI (NCI-H226 lung) greater than 100 µM and a GI50 (SF-268 CNS) of 32.7 µM. For the same compound, the TGI (SF-268 CNS) was greater than 100 µM, the TGI (K-562 leukemia) was greater than 100 µM and the TGI (SK-OV-3 ovarian) was greater than 100 µM. The TGI (HL-60(TB) leukemia) was greater than 100 µM, the TGI (LOX IMVI melanoma) was greater than 100 µM and the TGI (SW-620 colon) was greater than 100 µM. For the same compound, the TGI (SNB-78 CNS) was greater than 100 µM, the GI50 (HCT-116 colon) was 73.7 µM and the TGI (HCT-116 colon) was greater than 100 µM. The TGI (KM12 colon) was greater than 100 µM, the TGI (HOP-62 NSCLC) was 65.2 µM and the TGI (LXFL 529 NSCLC) was greater than 100 µM.

`CCCCC#COP(=O)(OCC)OCC` was tested, and the TGI (UACC-62 melanoma) was greater than 100 µM, the TGI (CCRF-CEM leukemia) was greater than 100 µM and the TGI (OVCAR-4 ovarian) was greater than 100 µM. The TGI (UO-31 renal) was greater than 100 µM, the TGI (NCI-H23 lung) was greater than 100 µM and the TGI (NCI-H522 lung) was greater than 100 µM. For the same compound, the TGI (SF-539 CNS) was greater than 100 µM, the TGI (MOLT-4 leukemia) was greater than 100 µM and the TGI (MALME-3M melanoma) was greater than 100 µM. The TGI (SNB-19 CNS) was greater than 100 µM, the TGI (OVCAR-3 ovarian) was greater than 100 µM and the TGI (RPMI-8226 leukemia) was greater than 100 µM. It also gave a TGI (COLO 205 colon) greater than 100 µM, a TGI (SR leukemia) greater than 100 µM and a TGI (HT29 colon) greater than 100 µM. It also gave a TGI (DLD-1 colon) greater than 100 µM, a TGI (DMS 114 small cell lung) greater than 100 µM and a TGI (SF-295 CNS) greater than 100 µM. The TGI (NCI-H460 lung) was greater than 100 µM, the TGI (SK-MEL-5 melanoma) was greater than 100 µM and the TGI (SK-MEL-2 melanoma) was greater than 100 µM. For the same compound, the TGI (OVCAR-5 ovarian) was greater than 100 µM, the TGI (U251 CNS) was greater than 100 µM and the TGI (786-0 renal) was greater than 100 µM. It also gave a TGI (HCT-15 colon) greater than 100 µM, a TGI (M14 melanoma) greater than 100 µM and a TGI (A549 NSCLC) greater than 100 µM. For the same compound, the TGI (TK-10 renal) was greater than 100 µM, the TGI (ACHN renal) was greater than 100 µM and the TGI (SN12C renal) was greater than 100 µM. It also gave a TGI (M19-MEL melanoma) greater than 100 µM, a TGI (OVCAR-8 ovarian) greater than 100 µM and a TGI (CAKI-1 renal) greater than 100 µM. For the same compound, the TGI (HCC-2998 colon) was greater than 100 µM, the TGI (EKVX NSCLC) was greater than 100 µM and the TGI (IGROV1 ovarian) was greater than 100 µM. The TGI (KM20L2 colon) was greater than 100 µM, the TGI (NCI-H226 lung) was greater than 100 µM and the TGI (SF-268 CNS) was greater than 100 µM. The TGI (SK-OV-3 ovarian) was greater than 100 µM, the TGI (HL-60(TB) leukemia) was greater than 100 µM and the TGI (LOX IMVI melanoma) was greater than 100 µM. For the same compound, the TGI (SW-620 colon) was greater than 100 µM, the TGI (SNB-78 CNS) was greater than 100 µM and the TGI (UACC-257 melanoma) was greater than 100 µM. It also gave a TGI (HCT-116 colon) greater than 100 µM, a TGI (KM12 colon) greater than 100 µM and a TGI (RXF-631 renal) greater than 100 µM. For the same compound, the TGI (HOP-62 NSCLC) was greater than 100 µM, the TGI (A498 renal) was greater than 100 µM and the TGI (LXFL 529 NSCLC) was greater than 100 µM.
